Data from the supplement of paper PMC10307832.

Tests used:
Assay in all cases: relative viability (nuclei count vs DMSO), 5 days (fraction); higher = more cells survive
Quizartinib + Lapatinib = compound: CC(C)(C)c1cc(NC(=O)Nc2ccc(-c3cn4c(n3)sc3cc(OCCN5CCOCC5)ccc34)cc2)no1 [Quizartinib] + CS(=O)(=O)CCNCc1ccc(-c2ccc3ncnc(Nc4ccc(OCc5cccc(F)c5)c(Cl)c4)c3c2)o1 [Lapatinib] (partner 2 µM)
Summary of the method: (§1)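 One day after seeding in 1536-well plates, lung cancer cell lines were dosed by pin tool. Dosing was either single-drug or a fixed anchor-drug dose plus five library-drug doses (not always all listed) in √10 steps. After 5 days, nuclei were stained in one fix-and-stain step and counted on 4× images, and relative viability is the nuclei count of treated wells over that of vehicle wells, given as the median of duplicate plates.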

Quizartinib + Dasatinib = compound: CC(C)(C)c1cc(NC(=O)Nc2ccc(-c3cn4c(n3)sc3cc(OCCN5CCOCC5)ccc34)cc2)no1 [Quizartinib] + Cc1nc(Nc2ncc(C(=O)Nc3c(C)cccc3Cl)s2)cc(N2CCN(CCO)CC2)n1 [Dasatinib] (partner 0.075 µM)
Summary of the method: as §1

YM155 + Olaparib = compound: COCC[n+]1c2c(n(Cc3cnccn3)c1C)C(=O)c1ccccc1C2=O [YM155] + O=C(c1cc(Cc2n[nH]c(=O)c3ccccc23)ccc1F)N1CCN(C(=O)C2CC2)CC1 [Olaparib] (partner 8 µM)
Summary of the method: as §1

YM155 + Crizotinib = compound: COCC[n+]1c2c(n(Cc3cnccn3)c1C)C(=O)c1ccccc1C2=O [YM155] + C[C@@H](Oc1cc(-c2cnn(C3CCNCC3)c2)cnc1N)c1c(Cl)ccc(F)c1Cl [Crizotinib] (partner 1 µM)
Summary of the method: as §1

| Cell Line | relative viability (Quizartinib + Lapatinib; first compound 0.001 µM) | relative viability (Quizartinib + Lapatinib; first compound 0.003162 µM) | relative viability (Quizartinib + Lapatinib; first compound 0.01 µM) | relative viability (Quizartinib + Lapatinib; first compound 0.03162 µM) | relative viability (Quizartinib + Lapatinib; first compound 0.1 µM) | relative viability (Quizartinib + Dasatinib; first compound 0.001 µM) | relative viability (Quizartinib + Dasatinib; first compound 0.003162 µM) | relative viability (Quizartinib + Dasatinib; first compound 0.01 µM) | relative viability (Quizartinib + Dasatinib; first compound 0.03162 µM) | relative viability (Quizartinib + Dasatinib; first compound 0.1 µM) | relative viability (YM155 + Olaparib; first compound 0.002 µM) | relative viability (YM155 + Olaparib; first compound 0.006325 µM) | relative viability (YM155 + Olaparib; first compound 0.02 µM) | relative viability (YM155 + Olaparib; first compound 0.06325 µM) | relative viability (YM155 + Crizotinib; first compound 0.002 µM) | relative viability (YM155 + Crizotinib; first compound 0.006325 µM) | relative viability (YM155 + Crizotinib; first compound 0.02 µM) | relative viability (YM155 + Crizotinib; first compound 0.06325 µM) |
| --- | --- | --- | --- | --- | --- | --- | --- | --- | --- | --- | --- | --- | --- | --- | --- | --- | --- | --- |
| COR-L23 | 1.03 | 0.856 | 1.14 | 0.613 | 0.928 | 0.452 | 0.437 | 0.557 | 0.414 | 0.461 | 0.322 | 0.298 | 0.187 | 0.147 | 0.649 | 0.569 | 0.403 | 0.105 |
| COR-L 105 | 0.362 | 0.388 | 0.376 | 0.409 | 0.352 | 0.385 | 0.408 | 0.413 | 0.381 | 0.283 | 0.584 | 0.715 | 0.72 | 0.538 | 0.907 | 0.807 | 0.591 | 0.385 |
| EKVX | 0.188 | 0.223 | 0.204 | 0.202 | 0.407 |  | 0.588 | 0.514 | 0.56 | 0.602 | 0.912 | 0.875 | 0.854 | 0.401 | 0.834 | 1.04 | 0.919 | 0.839 |
| EMC-BAC-2 | 0.809 | 0.94 | 0.823 | 0.671 | 0.946 | 0.296 | 0.299 | 0.294 |  | 0.375 | 0.444 | 0.44 | 0.392 | 0.301 | 0.786 | 0.765 | 0.758 | 0.7 |
| EPLC-272H | 0.681 | 1.07 | 0.834 | 0.923 | 1.34 | 0.326 | 0.366 | 0.4 | 0.38 | 0.377 | 0.825 | 0.891 | 0.722 | 0.811 | 0.692 | 0.814 | 0.952 | 1.06 |
| H3255 | 0.264 | 0.238 | 0.212 | 0.28 | 0.241 | 0.414 | 0.347 | 0.366 | 0.346 | 0.345 | 0.577 | 0.581 | 0.578 | 0.508 | 0.836 | 0.874 | 0.87 | 0.874 |
| HARA | 0.748 | 0.551 | 0.827 | 1.08 | 0.736 |  | 0.231 | 0.252 | 0.215 | 0.268 |  | 0.815 | 0.76 | 0.935 | 1.04 | 1.13 | 1.09 | 0.995 |
| HCC-15 | 0.652 | 0.795 | 0.859 | 0.791 | 0.767 |  | 0.58 | 0.594 |  | 0.6 | 0.668 | 0.763 | 0.696 | 0.666 | 0.747 | 0.887 | 0.815 | 0.711 |
| HCC-78 | 0.869 | 0.901 | 0.576 | 0.702 | 0.703 | 0.354 | 0.53 | 0.308 | 0.294 | 0.346 | 0.882 | 0.865 | 0.807 | 1 | 0.328 | 0.322 | 0.325 | 0.371 |
| HCC-366 | 0.931 | 0.992 | 1.06 | 0.897 | 1 | 0.531 | 0.548 | 0.575 | 0.612 | 0.657 | 0.368 | 0.329 | 0.375 | 0.275 | 0.519 | 0.478 | 0.612 | 0.401 |
| HCC-827 | 0.196 | 0.22 | 0.19 | 0.164 | 0.214 | 0.315 | 0.396 | 0.325 | 0.274 | 0.281 | 0.708 | 0.649 | 0.654 | 0.702 | 0.866 | 0.968 | 0.918 | 0.89 |
| HOP-62 | 0.745 | 0.957 | 0.993 | 0.978 | 0.888 | 0.564 | 0.589 | 0.638 | 0.652 | 0.662 | 0.668 | 0.35 | 0.419 | 0.29 | 0.91 | 1.01 | 0.919 | 0.983 |
| LC-2-ad | 0.791 | 0.883 | 0.724 | 0.839 | 0.607 | 0.48 | 0.799 | 0.546 |  | 0.5 | 0.718 | 0.685 | 0.695 | 0.617 | 0.446 | 0.428 | 0.496 | 0.453 |
| LCLC-97TM1 |  | 0.862 | 0.527 | 0.848 | 1.43 | 0.856 | 0.735 | 0.842 | 0.892 | 0.738 |  | 0.321 | 0.311 | 0.376 | 0.401 | 0.4 | 0.442 | 0.318 |
| LK-2 | 0.839 | 0.854 | 1 | 0.723 | 0.761 | 0.31 |  | 0.313 | 0.205 | 0.284 | 0.644 | 0.71 | 0.797 | 0.75 | 0.226 | 0.236 | 0.214 | 0.241 |
| LOU-NH91 | 0.724 | 0.806 | 0.804 | 0.522 | 0.785 | 0.574 | 0.615 | 0.553 | 0.524 | 0.62 | 0.894 | 0.874 | 0.921 | 0.745 | 0.735 | 0.688 | 0.731 | 0.727 |
| LU99A | 0.857 | 0.901 | 0.999 | 1 | 0.968 | 0.419 | 0.592 | 0.523 | 0.467 | 0.135 | 0.269 | 0.236 | 0.255 | 0.262 | 0.499 | 0.549 | 0.633 | 0.474 |
| LXF-289 | 0.788 | 0.838 | 0.932 | 0.923 | 0.892 | 0.218 | 0.21 | 0.29 | 0.254 | 0.29 | 0.984 | 1.04 | 1.04 | 0.947 | 0.812 | 0.787 | 0.867 | 0.684 |
